US20240398813A1, “PHARMACEUTICAL COMPOSITION FOR PREVENTING OR TREATING OVERACTIVE BLADDER” (GWANGJU INSTITUTE OF SCIENCE AND TECHNOLOGY, priority 2021, published 2024)

How the values were obtained:
[1] = biological target: T1, hyperactive mutant BKCa channels (hSlo G803D/N806K) stably expressed in AD 293 cells (Homo sapiens, UniProt Q12791, G856D/N859K); test: Cell-based fluorescence assay (FluxOR Potassium Ion Channel Assay) of BKCa channel activation; details: compounds at 5 μM; n=3; vehicle 0.26
T1 construct: expressed in transfected cells
T1 sequence (Q12791 whole entry G856D/N859K): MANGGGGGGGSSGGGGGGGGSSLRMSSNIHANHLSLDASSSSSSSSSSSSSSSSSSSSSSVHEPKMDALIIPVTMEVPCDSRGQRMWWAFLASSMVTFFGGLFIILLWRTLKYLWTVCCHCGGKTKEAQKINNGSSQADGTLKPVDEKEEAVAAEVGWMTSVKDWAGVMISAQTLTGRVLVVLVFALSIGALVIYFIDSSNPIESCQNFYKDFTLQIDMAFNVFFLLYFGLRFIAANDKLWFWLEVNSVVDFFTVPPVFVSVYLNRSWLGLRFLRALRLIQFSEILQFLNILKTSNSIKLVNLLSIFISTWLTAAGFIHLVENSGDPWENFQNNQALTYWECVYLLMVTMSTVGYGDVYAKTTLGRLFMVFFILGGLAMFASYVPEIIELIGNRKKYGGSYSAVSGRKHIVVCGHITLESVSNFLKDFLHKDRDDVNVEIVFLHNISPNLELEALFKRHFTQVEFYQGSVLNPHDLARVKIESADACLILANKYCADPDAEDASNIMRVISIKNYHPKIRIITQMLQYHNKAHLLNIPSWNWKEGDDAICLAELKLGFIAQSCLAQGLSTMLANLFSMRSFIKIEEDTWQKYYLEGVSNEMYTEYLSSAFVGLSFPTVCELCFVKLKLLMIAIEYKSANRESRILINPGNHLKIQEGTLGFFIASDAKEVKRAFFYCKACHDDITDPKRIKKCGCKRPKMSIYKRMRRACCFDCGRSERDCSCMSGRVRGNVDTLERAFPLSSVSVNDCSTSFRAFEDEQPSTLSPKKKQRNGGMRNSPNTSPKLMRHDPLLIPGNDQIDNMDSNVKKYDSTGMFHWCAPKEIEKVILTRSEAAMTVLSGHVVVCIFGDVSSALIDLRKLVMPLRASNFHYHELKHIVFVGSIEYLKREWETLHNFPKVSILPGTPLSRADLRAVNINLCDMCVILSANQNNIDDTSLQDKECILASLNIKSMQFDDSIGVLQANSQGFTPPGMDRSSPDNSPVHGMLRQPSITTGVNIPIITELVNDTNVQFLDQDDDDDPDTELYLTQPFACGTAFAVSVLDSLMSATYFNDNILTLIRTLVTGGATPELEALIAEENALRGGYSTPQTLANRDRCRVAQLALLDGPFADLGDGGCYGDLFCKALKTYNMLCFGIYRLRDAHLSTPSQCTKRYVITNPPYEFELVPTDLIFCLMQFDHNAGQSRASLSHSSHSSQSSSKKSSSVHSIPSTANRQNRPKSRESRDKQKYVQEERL

[2] = biological target: T1, hyperactive mutant BKCa channels (hSlo G803D/N806K) stably expressed in AD 293 cells; test: as above; parameters: key to Channel activity increase for 80 s (ΔRFU) at 6 μM: ratio of ΔRFU (RFU at 100 s − 20 s) to the same ΔRFU for vehicle
Summary of the method: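 AD 293 cells stably expressing hSlo G803D/N806K were exposed to compound in assay buffer for 15 min, then read by FluxOR thallium-flux fluorescence (ex 485/em 528 nm) every 2 s for 120 s. Initial rate vi from 20–24 s; ΔRFU from 20–100 s, normalised to vehicle and measured at 6 μM; apparent EC50 from dose-response fit.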

Question: Which results are given for Cc1cccc(NC(=O)c2sc(=S)n3c2[nH]c(=O)c2cc(Br)ccc23)c1 [TTQC-1, 7-bromo-5-oxo-1-thioxo-N-(m-tolyl)-4,5-dihydro-1H-thiazolo[3,4-a]quinazoline-3-carboxamide]?
Answer: Activity (ΔRFU normalized by activities of LDD175) [1]: 1.06; increase in fluorescence induced by TTQC-1 in the presence of BKCa channel inhibitors ([2]; 2 μM TTQC-1, 1 μM paxillin and 0.1 μM iberiotoxin): removed; activation effect on the BKCa channel relative to LDD175 ([2]; 3 μM): 1.6 times; activation effect on the BKCa channels at a single concentration ([2]; 3 μM): most potent effect; effect (ΔRFU) relative to vehicle ([2]; 6 μM): 4.98±0.05 times; Initial velocity of channel activation for 4 s (vi) at 6 μM ([2]; 6 μM, first 4 s after channel stimulation): 9.77 s⁻¹; Channel activity increase for 80 s (ΔRFU) at 6 μM ([2]; 6 μM, normalized by vehicle): 4.98; concentration at which the Tl+ flux effect was saturated ([2]; 0.6-10 μM tested): 6 µM; TTQC-1 activation effect in the presence of 0.1 μM iberiotoxin ([2]; TTQC-1 at concentrations above 4 μM): activated the BKCa channels; TTQC-1 activation effect in the presence of 0.1 μM iberiotoxin ([2]; TTQC-1 at concentrations below 2 μM): eliminated; EC50 ([2]; fit of dose-response curve of initial rates, read-out: Apparent EC50 based on vi): 5.74 µM
